# According to patent US12391648B2, “Pyridyloxy thioester derivative and preparation method therefor, herbicidal composition, and application” (Qingdao Kingagroot Chemical Compound Co., Ltd., priority 2018, dated 2025):
# Experiments:
# Test in all cases: Post-emergence test experiment (Table 3, 1000 g/ha)
# Type in all cases: in vivo
# Conditions in all cases: post-emergence spray, after 3 weeks, fresh weight inhibition
# Abutilon theophrasti = system: Abutilon theophrasti
# From the text: (§1) The activity level standard of harmful plants destruction (i. e. growth inhibition rate) is as follows: • Level 5: the growth inhibition rate is greater than 85%; • Level 4: the growth inhibition rate is equal to or greater than 60% and less than 85%; • Level 3: the growth inhibition rate is equal to or greater than 40% and less than 60%; • Level 2: the growth inhibition rate is equal to or greater than 20% and less than 40%; • Level 1: the growth inhibition rate is equal to or greater than 5% and less than 20%; • Level 0: the growth inhibition rate is less than 5%;
# (§2) The above described growth inhibition rate is fresh weight inhibition rate.
# (§3) Post-emergence test experiment: Monocotyledonous and dicotyledonous weed seeds and main crop seeds (i. e. wheat, corn, rice, soybean, cotton, oilseed, millet and sorghum.) were put into a plastic pot loaded with soil. Then covered with 0.5-2 cm soil, the seeds were allowed to grow in good greenhouse environment. The test plants were treated at 2-3 leaf stage 2 weeks after sowing. The test compounds of the invention were dissolved with acetone respectively, then added with tween-80, and using 1.5 liters per hectare of an emulsible concentrate of methyl oleate as a synergist, and diluted by certain amount of water to certain concentration. The solution was sprayed to the plants with a sprayer. Then the plants were cultured for 3 weeks in the greenhouse, and the experiment result of weed controlling effect after 3 weeks was listed in tables 3-4.
# Galium spurium = system: Galium spurium
# From the text: as §1, §2, §3
# Monochoria vaginalis = system: Monochoria vaginalis
# From the text: as §1, §2, §3
Compound,Activity level (growth inhibition rate) Abutilon theophrasti (Abutilon theophrasti),Activity level (growth inhibition rate) Galium spurium (Galium spurium),Activity level (growth inhibition rate) Monochoria Vaginalis (Monochoria vaginalis)
CSC(=O)C(Oc1nc(F)c(Cl)c(N)c1Cl)C(C)C (stereo not drawn) [Compound 27],5 (Level 5: the growth inhibition rate is greater than 85%),5 (Level 5: the growth inhibition rate is greater than 85%),5 (Level 5: the growth inhibition rate is greater than 85%)
CSC(=O)C(Cc1ccccc1)Oc1nc(F)c(Cl)c(N)c1Cl (stereo not drawn) [Compound 126],5 (Level 5: the growth inhibition rate is greater than 85%),5 (Level 5: the growth inhibition rate is greater than 85%),5 (Level 5: the growth inhibition rate is greater than 85%)
CSC(=O)C(F)Oc1nc(F)c(Cl)c(N)c1Cl (stereo not drawn) [Compound 34],5 (Level 5: the growth inhibition rate is greater than 85%),5 (Level 5: the growth inhibition rate is greater than 85%),5 (Level 5: the growth inhibition rate is greater than 85%)
CSC(=O)C(Cl)Oc1nc(F)c(Cl)c(N)c1Cl (stereo not drawn) [Compound 35],5 (Level 5: the growth inhibition rate is greater than 85%),5 (Level 5: the growth inhibition rate is greater than 85%),5 (Level 5: the growth inhibition rate is greater than 85%)
CCC(Oc1ncc(Cl)c(N)c1Cl)C(=O)SC (stereo not drawn) [Compound 23],5 (Level 5: the growth inhibition rate is greater than 85%),5 (Level 5: the growth inhibition rate is greater than 85%),5 (Level 5: the growth inhibition rate is greater than 85%)
COc1ccc(C(Oc2nc(F)c(Cl)c(N)c2Cl)C(=O)SC)c(C)c1 (stereo not drawn) [Compound 62],5 (Level 5: the growth inhibition rate is greater than 85%),5 (Level 5: the growth inhibition rate is greater than 85%),5 (Level 5: the growth inhibition rate is greater than 85%)
C#CC(Oc1nc(F)c(Cl)c(N)c1Cl)C(=O)SC (stereo not drawn) [Compound 33],5 (Level 5: the growth inhibition rate is greater than 85%),5 (Level 5: the growth inhibition rate is greater than 85%),5 (Level 5: the growth inhibition rate is greater than 85%)
CCCC(Oc1nc(F)c(Cl)c(N)c1Cl)C(=O)SC (stereo not drawn) [Compound 26],5 (Level 5: the growth inhibition rate is greater than 85%),5 (Level 5: the growth inhibition rate is greater than 85%),5 (Level 5: the growth inhibition rate is greater than 85%)
CSC(=O)C(Oc1nc(F)c(Cl)c(N)c1Cl)c1cccs1 (stereo not drawn) [Compound 53],5 (Level 5: the growth inhibition rate is greater than 85%),5 (Level 5: the growth inhibition rate is greater than 85%),5 (Level 5: the growth inhibition rate is greater than 85%)
CSC(=O)C(Oc1nc(F)c(Cl)c(N)c1Cl)c1cncnc1 (stereo not drawn) [Compound 64],5 (Level 5: the growth inhibition rate is greater than 85%),5 (Level 5: the growth inhibition rate is greater than 85%),5 (Level 5: the growth inhibition rate is greater than 85%)
CSC(=O)C(Oc1nc(F)c(Cl)c(N)c1Cl)SC (stereo not drawn) [Compound 47],5 (Level 5: the growth inhibition rate is greater than 85%),5 (Level 5: the growth inhibition rate is greater than 85%),5 (Level 5: the growth inhibition rate is greater than 85%)
CCC(Oc1nc(Cl)c(Cl)c(N)c1Cl)C(=O)SC (stereo not drawn) [Compound 24],5 (Level 5: the growth inhibition rate is greater than 85%),5 (Level 5: the growth inhibition rate is greater than 85%),5 (Level 5: the growth inhibition rate is greater than 85%)
COC(=O)C(Oc1nc(F)c(Cl)c(N)c1Cl)C(=O)SC (stereo not drawn) [Compound 52],5 (Level 5: the growth inhibition rate is greater than 85%),5 (Level 5: the growth inhibition rate is greater than 85%),5 (Level 5: the growth inhibition rate is greater than 85%)
CSC(=O)C(CF)Oc1nc(F)c(Cl)c(N)c1Cl (stereo not drawn) [Compound 38],5 (Level 5: the growth inhibition rate is greater than 85%),5 (Level 5: the growth inhibition rate is greater than 85%),5 (Level 5: the growth inhibition rate is greater than 85%)
CCn1nccc1C(Oc1nc(F)c(Cl)c(N)c1Cl)C(=O)SC (stereo not drawn) [Compound 56],5 (Level 5: the growth inhibition rate is greater than 85%),5 (Level 5: the growth inhibition rate is greater than 85%),5 (Level 5: the growth inhibition rate is greater than 85%)
CSC(=O)C(N)Oc1nc(F)c(Cl)c(N)c1Cl (stereo not drawn) [Compound 45],5 (Level 5: the growth inhibition rate is greater than 85%),5 (Level 5: the growth inhibition rate is greater than 85%),5 (Level 5: the growth inhibition rate is greater than 85%)
CSC(=O)C(C#N)Oc1nc(F)c(Cl)c(N)c1Cl (stereo not drawn) [Compound 43],5 (Level 5: the growth inhibition rate is greater than 85%),5 (Level 5: the growth inhibition rate is greater than 85%),5 (Level 5: the growth inhibition rate is greater than 85%)
COC(Oc1nc(F)c(Cl)c(N)c1Cl)C(=O)SC (stereo not drawn) [Compound 50],5 (Level 5: the growth inhibition rate is greater than 85%),5 (Level 5: the growth inhibition rate is greater than 85%),5 (Level 5: the growth inhibition rate is greater than 85%)
CSC(=O)C(Oc1nc(F)c(Cl)c(N)c1Cl)c1ccccc1 (stereo not drawn) [Compound 59],5 (Level 5: the growth inhibition rate is greater than 85%),5 (Level 5: the growth inhibition rate is greater than 85%),5 (Level 5: the growth inhibition rate is greater than 85%)
CSC(=O)C(CC(F)(F)F)Oc1nc(F)c(Cl)c(N)c1Cl (stereo not drawn) [Compound 42],5 (Level 5: the growth inhibition rate is greater than 85%),5 (Level 5: the growth inhibition rate is greater than 85%),5 (Level 5: the growth inhibition rate is greater than 85%)
CSC(=O)C(CC#N)Oc1nc(F)c(Cl)c(N)c1Cl (stereo not drawn) [Compound 44],5 (Level 5: the growth inhibition rate is greater than 85%),5 (Level 5: the growth inhibition rate is greater than 85%),5 (Level 5: the growth inhibition rate is greater than 85%)
CSC(=O)C(Oc1nc(F)c(Cl)c(N)c1Cl)c1ccc2ccccc2c1 (stereo not drawn) [Compound 65],5 (Level 5: the growth inhibition rate is greater than 85%),5 (Level 5: the growth inhibition rate is greater than 85%),5 (Level 5: the growth inhibition rate is greater than 85%)
C=CC(Oc1nc(F)c(Cl)c(N)c1Cl)C(=O)SC (stereo not drawn) [Compound 32],5 (Level 5: the growth inhibition rate is greater than 85%),5 (Level 5: the growth inhibition rate is greater than 85%),5 (Level 5: the growth inhibition rate is greater than 85%)
CSC(=O)C(Oc1nc(F)c(Cl)c(N)c1Cl)C1CC1 (stereo not drawn) [Compound 28],5 (Level 5: the growth inhibition rate is greater than 85%),5 (Level 5: the growth inhibition rate is greater than 85%),5 (Level 5: the growth inhibition rate is greater than 85%)
CSC(=O)C(Oc1nc(F)c(Cl)c(N)c1Cl)c1cscn1 (stereo not drawn) [Compound 55],5 (Level 5: the growth inhibition rate is greater than 85%),5 (Level 5: the growth inhibition rate is greater than 85%),5 (Level 5: the growth inhibition rate is greater than 85%)
